The values that follow come from patent US11434246B2, “EP4 antagonists” (Eisai R&D Management Co., Ltd., priority 2015, dated 2022).

A word on the Ki: it is a dissociation constant, usually derived from enzyme kinetics or from competition with a known ligand. For orientation: IC50 means the concentration needed to halve the response being measured. A high value points to lower potency.

The target of data set [1] is T1, mouse EP4 receptor (Mus musculus, UniProt P32240).
T1 construct: purchased Genscript; host or cells: U2OS clone
The data set is described as follows: Competitive Radioligand EP4 Receptor Binding Assay ([3H]-PGE2, U2OS membranes). Conditions: mouse EP4-overexpressing cell membrane fraction, 12 nM [3H]-PGE2; read-out: Ki of inhibition of radiolabelled PGE2 binding, mouse EP4. The protocol: (§1) Competitive Radioligand EP4 Receptor Binding Assay: The assay was performed using ChemiScreen recombinant human EP4 receptor membrane preparations from Millipore using Chem-1 cells and mouse EP4 receptor membrane preparations from Genscript using U2OS clone, according to manufacturer's instructions. For human EP4 binding, 10 μg Chem-1 cell membranes overexpressing human EP4 cDNA were mixed with 12 nM [^3H]-PGE2 and 5 μmol/L unlabeled PGE2 or 0.1% DMSO in the presence or absence of various concentrations of testing compounds in binding buffer (50 mM HEPES, pH 7.4, 5 mM MgCl2, 1 mM CaCl2, 0.2% BSA) in a nonbinding 96-well plate, and incubated for 2 h at room temperature. For mouse EP4 binding, 60 μg of U2OS membranes were used in the same condition. Prior to filtration, a GF/C 96-well filter plate was coated with 0.33% polyethyleneimine for 30 min, then washed with 50 mM HEPES, pH 7.4, 0.5% BSA. Binding reactions were transferred to the filter plate, and washed 3 times with assay Wash Buffer (50 mM HEPES, pH7.4, 500 mM NaCl, 0.1% BSA). The plate was dried and radioactivity counted. The data were processed using PRISM software, and IC50 and Ki values were calculated using the same software.

Data set [2] relates to 4T1 cells. In words: In vivo anti-tumor pharmacology, mouse breast 4T1 syngeneic tumor model. The protocol: In vivo Anti-tumor Pharmacology: 4T1 cells were maintained in RPMI 1640 medium supplemented with 10% FBS at 37° C. and 5% CO2 atmosphere. Cell detachment was obtained using standard trypsinization methods, quantification of cell numbers and viability information using the NC-200 automated cell counter. Compound 1 was thoroughly suspended in 0.5% methyl cellulose (MC) by sonication at 4° C. for 15 min before oral administration (p.o.) to animals. BALB/c mice were injected subcutaneously (s.c.) with live 1×10^5 4 T1 cells. Mice developed tumors of approximately 36 mm^3 in 5 days. 4T1 tumor-bearing mice were randomized and mapped into 5 groups of 10 mice each: group A received vehicle (0.5% MC); group B received 0.1 mg/kg of compound 1; group C received 1 mg/kg of compound 1, group D received 25 mg/kg of compound 1; and group E received 150 mg/kg of compound 1. All treatments were give p.o. daily for 21 consecutive days. Tumor volumes and body weights were measured twice weekly. Study was terminated 27 days after tumor cell injection. Tumor volumes were expressed as mean±SEM. Tumor volume differences among treated mouse groups on day 27 were analyzed by the one-way ANOVA followed by Tukey's test. P≤0.05 values were considered significant.

Data set [3] addresses T2, EP4 (Homo sapiens, UniProt P35408). In words: Competitive Radioligand EP4 Receptor Binding Assay ([3H]-PGE2, Chem-1 cell membranes). Also noted: purchased Millipore; host or cells: Chem-1 cells. As to conditions: human EP4-overexpressing cell membrane fraction, 12 nM [3H]-PGE2; read-out: Ki of inhibition of radiolabelled PGE2 binding, human EP4. The protocol: as §1
The target in data set [4] is T2, EP4. In words: EP4 Antagonism by CRE-PLAP Reporter Assay (SE302 cells, PGE2-stimulated). The format is cell-based. Also on record: HEK293 cells express endogenous EP4; endogenous in cells; host or cells: SE302 (HEK293 clone with CRE-PLAP reporter). As to conditions: SE302 (HEK293) cells, 3 ng/mL PGE2, overnight; single or multiple assay average values. The method in brief:
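HEK293-derived SE302 cells with endogenous EP4 and CRE-driven secreted PLAP, in serum-free medium with 0.1% BSA, stimulated overnight with 3 ng/mL PGE2 plus compound. Supernatant PLAP read by luminescence (pH 11 carbonate buffer, 2 h). IC50 from % of control, normalized to DMSO with and without PGE2.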
A general note: Reporter assays use an easily measured gene product as a stand-in for the process of interest.

Structures are written as SMILES.

T2 sequence (P35408 whole entry): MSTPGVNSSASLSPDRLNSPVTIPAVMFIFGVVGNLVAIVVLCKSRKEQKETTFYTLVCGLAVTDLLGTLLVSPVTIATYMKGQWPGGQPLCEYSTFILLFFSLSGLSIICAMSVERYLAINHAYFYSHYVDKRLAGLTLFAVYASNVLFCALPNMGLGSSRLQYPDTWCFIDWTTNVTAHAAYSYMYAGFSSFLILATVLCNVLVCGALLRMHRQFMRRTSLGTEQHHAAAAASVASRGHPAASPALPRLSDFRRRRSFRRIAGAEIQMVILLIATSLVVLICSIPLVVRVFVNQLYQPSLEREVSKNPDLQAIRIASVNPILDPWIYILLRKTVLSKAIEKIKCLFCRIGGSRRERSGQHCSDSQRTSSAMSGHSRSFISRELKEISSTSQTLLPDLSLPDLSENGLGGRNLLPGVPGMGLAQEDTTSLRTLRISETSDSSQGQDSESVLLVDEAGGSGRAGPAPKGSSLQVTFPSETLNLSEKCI
T1 sequence (P32240 whole entry): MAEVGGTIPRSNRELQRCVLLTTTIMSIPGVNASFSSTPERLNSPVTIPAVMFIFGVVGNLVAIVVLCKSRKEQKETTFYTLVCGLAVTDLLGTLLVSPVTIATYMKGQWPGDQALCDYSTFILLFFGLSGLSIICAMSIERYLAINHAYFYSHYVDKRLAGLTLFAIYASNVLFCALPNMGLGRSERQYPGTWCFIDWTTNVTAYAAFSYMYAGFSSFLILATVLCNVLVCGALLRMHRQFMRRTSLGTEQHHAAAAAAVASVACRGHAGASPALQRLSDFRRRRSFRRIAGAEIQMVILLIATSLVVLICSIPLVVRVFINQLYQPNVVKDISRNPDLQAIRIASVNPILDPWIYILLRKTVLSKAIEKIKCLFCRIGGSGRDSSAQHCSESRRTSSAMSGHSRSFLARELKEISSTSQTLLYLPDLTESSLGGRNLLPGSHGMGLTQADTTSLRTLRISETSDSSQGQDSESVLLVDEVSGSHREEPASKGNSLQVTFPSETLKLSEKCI

As to `C[C@H](NC(=O)c1c(C(F)(F)F)nn2c1N(Cc1cccc(C(F)(F)F)c1)CC2)c1ccc(C(=O)O)cc1` [Compound 1, (S)-4-(1-(6-(trifluoromethyl)-1-(3-(trifluoromethyl)benzyl)-2,3-dihydro-1H-imidazo[1,2-b]pyrazole-7-carboxamido)ethyl)benzoic Acid], the Ki was 26.3 nM in data set [1] and 4.2 nM in data set [3]. The “gross toxicity judged from animal body weight and overall animal behavior” value in data set [2] (0.1-150 mg/kg p.o. daily for 21 days, BALB/c mice) is on record as “None of the doses tested showed gross toxicity”. Besides, the tumor growth inhibition entry in data set [2] (0.1 and 1.0 mg/kg p.o. daily for 21 days, day 27) is “some inhibition was observed, but without statistical significance”; in data set [2] (25 and 150 mg/kg p.o. daily for 21 days, day 27), “Statistically significant inhibition of tumor growth”; in data set [2] (25 and 150 mg/kg p.o. daily for 21 days, day 27, listed as compound 1) it was “significant and comparable anti-tumor activity”; in data set [2] (BALB/c mice, 4T1 s.c. tumors, p.o. daily for 21 days, range 0.1 mg/kg-150 mg/kg), “inhibited the tumor growth in a dose-dependent manner”. This molecule also gave an IC50 in data set [4] of 0.34 nM.
In data set [4], `C[C@H](NC(=O)c1c(C(F)(F)F)nn2c1N(Cc1cccc(C(F)(F)F)c1)CC2)c1ccc(C(=O)NC2(C#N)CC2)cc1` [Compound 101, (S)—N-(1-(4-((1-Cyanocyclopropyl)carbamoyl)phenyl)ethyl)-6-(trifluoromethyl)-1-(3-(trifluoromethyl)benzyl)-2,3-dihydro-1H-imidazo[1,2-b]pyrazole-7-carboxamide] yielded an IC50 of 32.9 nM.
As to `COC(=O)c1ccc([C@H](C)NC(=O)c2c(C(F)(F)F)nn3c2N(C(=O)c2ccccc2F)CC3)cc1` [Compound 102], in data set [4], the midpoint of inhibition, the IC50, lay at 39 nM.
